Experimental data taken from article PMC9127750, “Structure-based design of CDC42 effector interaction inhibitors for the treatment of cancer” (Cell reports, 2022).

Test system: WM3248 melanoma cells, 486 antibodies
Test: Reverse phase protein arrays (RPPA);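 on RPPA ACC1.R.C: ratio of treated to vehicle (0 µM) normalized linear protein signal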;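 on RPPA AMPK.a2 pS345.R.V: ratio of treated to vehicle (0 µM) normalized linear protein signal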;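 on RPPA AMPKa pT172.R.C: ratio of treated to vehicle (0 µM) normalized linear protein signal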;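 on RPPA ASNS.R.V: ratio of treated to vehicle (0 µM) normalized linear protein signal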;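 on RPPA AceCS1.R.V: ratio of treated to vehicle (0 µM) normalized linear protein signal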;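 on RPPA Akt1.R.V: ratio of treated to vehicle (0 µM) normalized linear protein signal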;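 on RPPA Atg5.R.C: ratio of treated to vehicle (0 µM) normalized linear protein signal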;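 on RPPA Bim.R.V: ratio of treated to vehicle (0 µM) normalized linear protein signal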
Assay type: cell-based, Human
Settings: 5 uM
Excerpt: Pellets were snap frozen in liquid nitrogen and shipped to MD Anderson Cancer Center core RPPA facility for RPPA analysis (Table S5). Three biological replicates for each sample were generated.
Nomenclatures on the RPPA heatmaps: name_of_antibody.species_of_antibody.status_of_antibody. V - antibody validated; C - validation of antibody in progress; Q - antibody nonspecific; E – under evaluation; antibodies raised in M - mouse, G - goat, R - rabbit, or T - rat.

With CN(C)c1cccc(Nc2cc(-c3ccccc3)nc(C3CCNCC3)n2)c1 [ARN22089, N1,N1-dimethyl-N3-(6-phenyl-2-(piperidin-4-yl)pyrimidin-4-yl)benzene-1,3-diamine] the “RPPA MYH11.R.C Average” value was 0.914, the “RPPA Myosin.IIa.R.C Average” value was 0.843 and the “RPPA Myosin.IIa_pS1943.R.V Average” value was 0.844. For the same compound, the “RPPA Myt1.R.C Average” value was 1.051, the “RPPA N.Cadherin.R.V Average” value was 1.019 and the “RPPA N.Ras.M.V Average” value was 1.035. For the same compound, the “RPPA NAPSIN.A.R.C Average” value was 1.080, the “RPPA NDRG1_pT346.R.V Average” value was 0.957 and the “RPPA NDUFB4.R.V Average” value was 0.959. For the same compound, the “RPPA NRF2.R.C Average” value was 1.058, the “RPPA Notch1.R.V Average” value was 0.994 and the “RPPA Notch1.cleaved.R.V Average” value was 0.989. For the same compound, the “RPPA P.Cadherin.R.C Average” value was 1.050, the “RPPA PAI.1.M.V Average” value was 0.977 and the “RPPA PAICS.R.C Average” value was 0.899. For the same compound, the “RPPA PAK1.R.V Average” value was 1.006, the “RPPA PAK4.R.V Average” value was 0.986 and the “RPPA PAK_pT423_T402.R.C Average” value was 0.921. The “RPPA PAR.R.C Average” value was 1.327, the “RPPA PARG.R.C Average” value was 1.012 and the “RPPA PARP.R.V Average” value was 1.023. The “RPPA PAX6.R.V Average” value was 1.030, the “RPPA PAX8.R.C Average” value was 0.962 and the “RPPA PCNA.M.C Average” value was 0.948. The “RPPA PD.1.R.V Average” value was 0.992, the “RPPA PD.L1.R.C Average” value was 1.064 and the “RPPA PDH.M.V Average” value was 1.049. For the same compound, the “RPPA PDHA1.R.V Average” value was 1.079, the “RPPA PDHK1.R.C Average” value was 1.057 and the “RPPA PDK1_pS241.R.V Average” value was 1.138. For the same compound, the “RPPA PEA.15.R.V Average” value was 0.904, the “RPPA PEA.15_pS116.R.V Average” value was 1.018 and the “RPPA PERK.R.V Average” value was 0.925. The “RPPA PGM1.R.V Average” value was 0.979, the “RPPA PHGDH.R.C Average” value was 1.081 and the “RPPA PHLPP.R.V Average” value was 0.922. For the same compound, the “RPPA PI3K.p85.R.C Average” value was 0.987, the “RPPA PI3K.p110.a.R.C Average” value was 1.057 and the “RPPA PI3K.p110.b.M.C Average” value was 0.980. For the same compound, the “RPPA PKA.a.R.V Average” value was 1.013, the “RPPA PKC.a.b.II_pT638_T641.R.V Average” value was 0.925 and the “RPPA PKC.b.II_pS660.R.V Average” value was 1.162. For the same compound, the “RPPA PKCa.R.V Average” value was 1.462, the “RPPA PKM2.R.C Average” value was 0.954 and the “RPPA PLC.gamma1.R.V Average” value was 0.970. For the same compound, the “RPPA PLC.gamma1_pS1248.R.V Average” value was 1.060, the “RPPA PLC.gamma2_pY759.R.V Average” value was 0.976 and the “RPPA PLK1.R.C Average” value was 0.920. For the same compound, the “RPPA PMS2.R.V Average” value was 0.940, the “RPPA PR.R.V Average” value was 1.032 and the “RPPA PRAS40.M.C Average” value was 0.991. The “RPPA PRAS40_pT246.R.V Average” value was 1.028, the “RPPA PRC1_pT481.R.C Average” value was 0.944 and the “RPPA Paxillin.R.C Average” value was 0.977. The “RPPA Pdcd4.R.C Average” value was 1.156, the “RPPA Porin.M.V Average” value was 0.936 and the “RPPA p21.R.C Average” value was 1.048. The “RPPA p27.Kip1.R.C Average” value was 0.948, the “RPPA p27_pT157.R.C Average” value was 0.943 and the “RPPA p27_pT198.R.V Average” value was 1.103. The “RPPA p38.MAPK.R.V Average” value was 1.062, the “RPPA p38.MAPK._pT180_Y182.R.V Average” value was 1.580 and the “RPPA p38.a.M.V Average” value was 0.984. For the same compound, the “RPPA p44.42.MAPK.R.V Average” value was 0.980, the “RPPA p53.R.C Average” value was 1.052 and the “RPPA p70.S6K1.R.V Average” value was 0.998. The “RPPA p70.S6K_pT389.R.V Average” value was 1.143, the “RPPA p90RSK_pT573.R.C Average” value was 0.930 and the “RPPA A.Raf.R.V” value (5W1) was 1.057. The “RPPA A.Raf_pS299.R.C” value (5W1) was 0.952, the “RPPA ACC1.R.C” value (5W1) was 1.201 and the “RPPA ACC_pS79.R.V” value (5W1) was 1.224. For the same compound, the “RPPA ACLY_pS455.R.V” value (5W1) was 1.273, the “RPPA ACSL1.R.V” value (5W1) was 0.847 and the “RPPA ACVRL1.R.C” value (5W1) was 0.930. The “RPPA ADAR1.M.V” value (5W1) was 0.910, the “RPPA ALKBH5.R.V” value (5W1) was 0.866 and the “RPPA AMPK.a2_pS345.R.V” value (5W1) was 1.146. For the same compound, the “RPPA AMPKa.R.C” value (5W1) was 1.108, the “RPPA AMPKa_pT172.R.C” value (5W1) was 2.494 and the “RPPA AR.R.V” value (5W1) was 1.056. The “RPPA ARID1A.R.C” value (5W1) was 0.880, the “RPPA ASNS.R.V” value (5W1) was 0.847 and the “RPPA ATM.R.V” value (5W1) was 1.285. For the same compound, the “RPPA ATM_pS1981.R.V” value (5W1) was 0.930, the “RPPA ATP5A.M.C” value (5W1) was 0.983 and the “RPPA ATP5H.R.V” value (5W1) was 0.890. For the same compound, the “RPPA ATR.R.V” value (5W1) was 0.910, the “RPPA ATRX.R.C” value (5W1) was 1.060 and the “RPPA ATR_pS428.R.C” value (5W1) was 1.111. The “RPPA AceCS1.R.V” value (5W1) was 0.974, the “RPPA Akt1.R.V” value (5W1) was 1.150 and the “RPPA Akt1_pS473.R.V” value (5W1) was 1.251. For the same compound, the “RPPA Akt2.R.V” value (5W1) was 1.156, the “RPPA Akt2_pS474.R.C” value (5W1) was 1.400 and the “RPPA Akt.R.V” value (5W1) was 1.121. The “RPPA Akt_pS473.R.V” value (5W1) was 1.390, the “RPPA Akt_pT308.R.V” value (5W1) was 1.046 and the “RPPA Ambra1_pS52.R.C” value (5W1) was 0.943. The “RPPA Annexin.VII.M.V” value (5W1) was 0.883, the “RPPA Atg4B.R.C” value (5W1) was 1.033 and the “RPPA Atg5.R.C” value (5W1) was 1.001. For the same compound, the “RPPA Atg7.R.V” value (5W1) was 0.986, the “RPPA Aurora.A.R.C” value (5W1) was 0.575 and the “RPPA Aurora.ABC_pT288_pT232_pT198.R.C” value (5W1) was 0.881. For the same compound, the “RPPA Aurora.B.R.V” value (5W1) was 0.940, the “RPPA Axl.R.V” value (5W1) was 1.329 and the “RPPA B7.H3.R.C” value (5W1) was 0.986. For the same compound, the “RPPA B7.H4.R.C” value (5W1) was 1.110, the “RPPA B.Raf.R.C” value (5W1) was 1.153 and the “RPPA BAP1.M.V” value (5W1) was 0.943. The “RPPA BCL2A1.R.V” value (5W1) was 1.060, the “RPPA BMK1.Erk5_pT218_Y220.R.V” value (5W1) was 0.857 and the “RPPA BRCA1.M.C” value (5W1) was 0.962. The “RPPA BRD4.R.V” value (5W1) was 0.959, the “RPPA Bad_pS112.R.V” value (5W1) was 1.171 and the “RPPA Bak.R.C” value (5W1) was 1.077. For the same compound, the “RPPA Bax.R.V” value (5W1) was 0.955, the “RPPA Bcl2.R.C” value (5W1) was 0.855 and the “RPPA Beclin.R.C” value (5W1) was 0.863. For the same compound, the “RPPA BiP.GRP78.M.C” value (5W1) was 0.936, the “RPPA Bim.R.V” value (5W1) was 1.056 and the “RPPA X4E.BP1.R.V” value (5W1) was 1.448. The “RPPA X4E.BP1_pS65.R.V” value (5W1) was 0.917, the “RPPA X14.3.3.zeta.R.V” value (5W1) was 0.934 and the “RPPA X14.3.3βR.V” value (5W1) was 0.934. The “RPPA X53BP1.R.V” value (5W1) was 1.104, the “RPPA b.Actin.R.C” value (5W1) was 0.885 and the “RPPA b.Catenin.R.V” value (5W1) was 0.881. For the same compound, the “RPPA b.Catenin_pT41_S45.R.V” value (5W1) was 1.099, the “RPPA c.Abl.R.V” value (5W1) was 1.227 and the “RPPA c.Abl_pY412.R.C” value (5W1) was 1.133. For the same compound, the “RPPA c.IAP2.R.C” value (5W1) was 0.965, the “RPPA A.Raf.R.V” value (5W3) was 1.155 and the “RPPA A.Raf_pS299.R.C” value (5W3) was 1.022. The “RPPA ACC1.R.C” value (5W3) was 0.834, the “RPPA ACC_pS79.R.V” value (5W3) was 0.685 and the “RPPA ACLY_pS455.R.V” value (5W3) was 0.716. For the same compound, the “RPPA ACSL1.R.V” value (5W3) was 0.628, the “RPPA ACVRL1.R.C” value (5W3) was 0.953 and the “RPPA ADAR1.M.V” value (5W3) was 1.141. For the same compound, the “RPPA ALKBH5.R.V” value (5W3) was 0.830, the “RPPA AMPK.a2_pS345.R.V” value (5W3) was 1.116 and the “RPPA AMPKa.R.C” value (5W3) was 1.027. For the same compound, the “RPPA AMPKa_pT172.R.C” value (5W3) was 0.821, the “RPPA AR.R.V” value (5W3) was 1.102 and the “RPPA ARID1A.R.C” value (5W3) was 1.193. The “RPPA ASNS.R.V” value (5W3) was 1.291, the “RPPA ATM.R.V” value (5W3) was 1.157 and the “RPPA ATM_pS1981.R.V” value (5W3) was 0.939. For the same compound, the “RPPA ATP5A.M.C” value (5W3) was 0.233, the “RPPA ATP5H.R.V” value (5W3) was 0.791 and the “RPPA ATR.R.V” value (5W3) was 0.960. For the same compound, the “RPPA ATRX.R.C” value (5W3) was 1.213, the “RPPA ATR_pS428.R.C” value (5W3) was 1.112 and the “RPPA AceCS1.R.V” value (5W3) was 0.718. For the same compound, the “RPPA Akt1.R.V” value (5W3) was 0.726, the “RPPA Akt1_pS473.R.V” value (5W3) was 0.998 and the “RPPA Akt2.R.V” value (5W3) was 0.876. For the same compound, the “RPPA Akt2_pS474.R.C” value (5W3) was 1.140, the “RPPA Akt.R.V” value (5W3) was 0.848 and the “RPPA Akt_pS473.R.V” value (5W3) was 1.107.
